Patent US7087619B2, “Method for the treatment of urinary incontinence” (Endo Pharmaceuticals, Inc., priority 1995, dated 2006)

Legend:
[1] = system: female Sprague-Dawley rats; assay: Non-stop transvesical cystometrogram in urethane-anesthetized rats (continuous cystometry); assay type: in vivo
Procedure: Ten female Sprague-Dawley rats having a mean weight of 263±19 g were anesthetized with urethane (1.2 g/k, sc.). A midline incision was performed to expose the bladder and a 23G catheter was inserted into the bladder dome for the measurement of intravesical pressure. A non-stop transvesical cystometrogram, as described in J. Pharmacological. Methods, 15, pp. 157-167 (1986), was used, at a filling rate of 0.216 ml/min. of saline, to access the filling and voiding characteristics of the bladder. Through the continuous cystometry method thus afforded, consecutive micturition could be recorded. Dextromethorphan was given at intravenous does of: 1.0, 3.0, 10, 30, 50 mg/kg after the initial baseline micturition sequence was reliably measured for approximately 12 min. From these recordings the absolute values in maximum pressure obtained and the frequency of micturition was measured. A dose response curve illustrating the effect of dextromethorphan on the absolute micturition pressures in the range of 1-50 mg/kg is given in FIG. 1. Data given are mean and SE.

[2] = literature report; cited from earlier work

Row | SMILES | volume evoked micturition reflex ([1]; increasing intravenous doses 1.0-50 mg/kg, cystometrogram, anesthetized rats) | reduction in detrusor pressure ([1]; intravenous 10 mg/kg) | frequency of micturition ([1]; intravenous 1-50 mg/kg, dose response, FIG. 2) | reduction in detrusor pressure ([1]; intravenous dose level of 3 mg/kg) | effect on detrusor pressure at high doses (initial increase before suppression) ([1]; intravenous doses higher than 10 mg/kg) | volume evoked micturition contractions ([1]; intravenous doses in the range of 10-30 mg/kg) | frequency in micturition [2]
1 | COc1ccc2c(c1)[C@@]13CCCC[C@H]1[C@@H](C2)N(C)CC3 [dextromethorphan, (+)-3-methoxy-N-methylmorphinan] | suppressed in a dose sensitive manner | 50% | decrements gradually with respect to dose | significant sustained reduction | bimodal, producing an initial increase in detrusor pressure before suppression | almost totally suppressed | 
2 | C[C@]12N[C@H](Cc3ccccc31)c1ccccc12 [MK-801] |  |  |  |  |  |  | increase in frequency in micturition
